For 26 compounds, TGI and GI50 results are on record in PubChem BioAssay (NCI).

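Tested at 5 concentrations; 48 h exposure; 96-well plates; endpoints linearly interpolated, else capped at highest concentration. The concentration for 50% growth inhibition is given as GI50. The concentration for full growth arrest is given as TGI.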 Bounds are passed on as bounds.

What all share (test): NCI-60 cell line screen, 48 h
The test system of assay [1] is A498 renal.
Assay [2] relates to SF-268 CNS.
Assay [3] has as its system HOP-62 NSCLC.
The test system of assay [4] is U251 CNS.
Assay [5] deals with SK-MEL-28 melanoma.
The test system of assay [6] is HCT-15 colon.
In assay [7] the test system is CCRF-CEM leukemia.
The test system of assay [8] is 786-0 renal.
The subject of assay [9] is NCI-H23 lung.
For assay [10], the system named is HL-60(TB) leukemia.

As to `c1ccc2c(c1)CCCc1cc3ccccc3nc1-2`, the TGI in [1], in assay [2], in [3], in assay [4], in assay [5] and in [6] was more than 100 µM each time. For the same compound, the TGI in assay [7], in assay [8] and in [9] was more than 100 µM in each case.

Regarding `CC[C@@]1(OC(=O)CN)C(=O)OCc2c1cc1n(c2=O)Cc2cc3cc(N)ccc3nc2-1`, the GI50 was 0.0322 µM in assay [1]; less than 0.01 µM in assay [2]; less than 0.01 µM in assay [3]; less than 0.01 µM in [4]; 0.753 µM in assay [5]; 0.153 µM in assay [6]. In addition, the GI50 in [7], in assay [8] and in assay [9] was less than 0.01 µM throughout. The TGI is 0.337 µM in assay [1]; 0.847 µM in [3]; more than 100 µM in [5]; more than 20.3 µM in assay [6]; 0.0409 µM in assay [8]; 0.0246 µM in assay [9].

With `O=C1[C@H]2C(c3ccccc3)=NN(C(=O)c3ccccc3)[C@H]2C(=O)N1c1ccccc1`, the TGI in assay [3], in assay [4], in assay [5], in [6], in assay [7] and in assay [8] was more than 100 µM in each case. For the same compound, in assay [9], the TGI was more than 100 µM.

For the compound `O=C(CCCCCCCCCCc1ccccc1)c1c(O)cccc1O`, the TGI in [2] amounted to 57.8 µM; in [10], 71.6 µM; in assay [3], 42.2 µM; in [4], 38.1 µM; in [5] it was 40.1 µM; in assay [6] it was 38.7 µM. The TGI in assay [7] worked out at 90.8 µM; in assay [8] it was 32.3 µM; in assay [9], 35.9 µM.

As to `CO[C@H]1C=C[C@]23c4cc5c(cc4CN(CC2O)[C@@H]3C1)OCO5` (stereo partly specified), the TGI in assay [1] came to 9.66 µM; in assay [2] it was 32.7 µM; in assay [10], 0.32 µM; in assay [4], 38.3 µM; in assay [5], 54.9 µM; in assay [6], 24.9 µM. The TGI in assay [8] was found to be 16.5 µM; in assay [9], 33 µM.

Regarding `N#Cc1c2c(c(N=[N+]=[N-])n3c1nc1ccccc13)CCCC2`, the TGI in assay [1] was 6.1 µM; in assay [2], 16 µM; in assay [10], 8.6 µM; in assay [3] it was 31 µM; in [4], 10.3 µM; in [5] it was 14 µM. Besides, the TGI in [6] turned out to be 4.38 µM; in assay [8], 3.53 µM; in assay [9], 6.27 µM.

Consider `CC(CC(=O)O)(CC(=O)O)C(=O)O`, for which the TGI in [1], in [2], in assay [3], in assay [4], in [5] and in assay [6] was more than 100 µM throughout. Besides, the TGI in assay [8] and in assay [9] was more than 100 µM in each case.

As to `Brc1ccc2c(c1)C1(c3cc(Br)ccc3-2)c2cc(Br)ccc2-c2ccc(Br)cc21`, the TGI in [2], in assay [10], in assay [3], in assay [4], in [5] and in [6] was more than 100 µM each time. For the same compound, the TGI in assay [7], in assay [8] and in assay [9] was more than 100 µM in each case.

`CC1(C)N=C(N)N=C(N)N1c1ccc(OCC(=O)Nc2cccc(S(=O)(=O)F)c2)c(Cl)c1`: the TGI was more than 41.3 µM in assay [2]; more than 100 µM in assay [10]; more than 79.7 µM in assay [3]; more than 100 µM in [4]; more than 100 µM in [5]; more than 100 µM in [6]. The results for the TGI in [7], in [8] and in assay [9] were more than 100 µM, more than 42.5 µM and more than 45.4 µM, respectively.

On to `COc1cccc(-c2nn(-c3ccccc3)cc2-c2ccnc(NCCNC(=O)Nc3ccc(Cl)c(Cl)c3)c2)c1`, for which the GI50 in assay [2] was 2.43 µM; in [10] it was 2.43 µM; in [3], 3.39 µM; in [4], 2.65 µM; in [5], 2.03 µM; in [6] it was 3 µM. Further, the GI50 in assay [8] was 1.55 µM; in assay [9] it was 2.46 µM. The TGI in assay [2] came to 10.3 µM; in assay [10], 6.85 µM; in assay [3] it was 12.7 µM; in assay [4] it was 7.73 µM; in assay [5], 4.59 µM; in assay [6], 10.7 µM. The values for the TGI in assay [8] and in assay [9] were 3.28 µM and 11.6 µM, respectively.

Consider `O=C(/C=C/N1CCN(c2cccc(C(F)(F)F)c2)CC1)c1ccc(Cl)cc1Cl`, for which the GI50 is 21.6 µM in [1]; 28.6 µM in assay [2]; 19 µM in [3]; 26.1 µM in [4]; 21.1 µM in assay [5]; 26.8 µM in [6]. Further, the GI50 in assay [7] was 49.6 µM; in assay [8] it was 20.8 µM; in [9] it was 23.2 µM. Besides, the TGI in [1] came out at 38.8 µM; in assay [2] it was 88.8 µM; in assay [3] it was 35.4 µM; in assay [4], 59.8 µM; in assay [5] it was 43.9 µM; in assay [6], 53.9 µM. For the same compound, the TGI in assay [7] is more than 100 µM; in assay [8] it was 39.8 µM; in assay [9], 75.3 µM.

On to `CC(CS(=O)(=O)Cc1ccccc1)C(N)=O` (stereo unspecified), for which the TGI in assay [1], in [2], in assay [10], in [3], in assay [4] and in [5] was more than 100 µM in each case. Further, the TGI in assay [6], in assay [8] and in assay [9] was more than 100 µM in each case.

`COC(=O)C(CC=O)C(=O)C(=O)Nc1cccc(C(F)(F)F)c1` (stereo unspecified): the TGI in [2], in assay [10], in assay [3], in assay [4], in [5] and in assay [6] was more than 100 µM each time. Further, the TGI in assay [7], in assay [8] and in [9] was more than 100 µM each time.

With `COc1c(O)c(OC)c(C(=O)/C=C/c2ccccc2)c(O)c1OC`, the TGI in assay [2], in assay [10], in [4], in assay [5], in [6] and in assay [7] was more than 100 µM throughout. Further, the TGI in assay [8] is more than 100 µM.

With `COc1ccc2c(c1O)[C@@]13C=C(O)C(=O)C=C1[C@@H](C2)N(C)CC3`, the TGI in assay [2], in assay [10], in assay [3], in assay [4], in [5] and in assay [6] was more than 100 µM throughout. The TGI in assay [7], in [8] and in [9] was more than 100 µM throughout.

In the case of `COc1ccc(C[C@H]2C[C@@H](O)[C@@H](C)C/C=C/Cc3cccc(O)c3C(=O)O2)cn1`, the GI50 is 0.712 µM in [1]; 15.9 µM in assay [2]; 15.3 µM in assay [10]; 18.6 µM in assay [3]; 17.9 µM in [4]; 27.2 µM in assay [5]. In addition, the GI50 in [6] is 28.9 µM; in [8], 18 µM; in assay [9] it was 24.2 µM. Moreover, the TGI in assay [1] was found to be 31.4 µM; in [2], 53.5 µM; in assay [10], 38.4 µM; in [3] it was 40.2 µM; in assay [4], 36.1 µM; in assay [5], 78.7 µM. Further, the TGI in assay [6] worked out at 88.8 µM; in assay [8], 77.7 µM; in assay [9], 56.8 µM.

In the case of `Cc1nnc([S-])s1.[Au+].c1ccc([PH+](c2ccccc2)c2ccccc2)cc1`, the GI50 was 1.85 µM in assay [10], 1.57 µM in [5], 2.04 µM in assay [7] and 1.78 µM in assay [8]. In addition, the TGI in [10] came to 5.51 µM; in [5], 2.99 µM; in [7], 6.91 µM; in [8], 3.32 µM.

Regarding `CC(=O)NC1C(OCc2ccccc2)OC(COC(=O)CCCCCCCCCCNC(=O)c2cccc3c(=O)c4ccccc4[nH]c23)C(O)C1OC(C)C(=O)NC(C)C(=O)NC(CCC(N)=O)C(N)=O` (stereo unspecified), the TGI in [1], in assay [2], in [10], in [3], in [4] and in [5] was more than 100 µM in each case. For the same compound, the TGI in [6], in assay [8] and in assay [9] was more than 100 µM in each case.

`CC1OC(=O)N(CCCC=C2SCCCS2)C1=O` (stereo unspecified): the TGI in assay [1], in [2], in assay [4], in assay [5], in assay [6] and in assay [7] was more than 100 µM each time. The TGI in assay [8] and in assay [9] was more than 100 µM throughout.

Take `CCN(CC)CCOc1ccc(/C=C2\C[C@H]3[C@@H]4CC=C5C[C@@H](OC(C)=O)CC[C@]5(C)[C@H]4CC[C@]3(C)[C@H]2OC(C)=O)cc1OC`: the GI50 is 8.34 µM in assay [2]; 9.57 µM in assay [10]; 10.1 µM in assay [3]; 10.3 µM in [4]; 12.4 µM in [5]; 7.38 µM in assay [6]. For the same compound, the GI50 was 0.361 µM in assay [7], 9.66 µM in [8] and 7.96 µM in assay [9]. Further, the TGI was 19.8 µM in assay [2]; 19.5 µM in assay [10]; 19.5 µM in [3]; 26.2 µM in assay [4]; more than 50 µM in assay [5]; more than 50 µM in [6]. Further, the results for the TGI in assay [7], in assay [8] and in [9] were 6.77 µM, 18.7 µM and 16.1 µM, respectively.

Regarding `O=C(OCc1ccccc1CN1CCOCC1)c1ccc(Br)cc1`, the TGI in assay [1], in assay [2], in [3], in [4], in [5] and in [6] was more than 100 µM each time. Moreover, the TGI in [8] and in [9] was more than 100 µM each time.

Take `COC(=O)/C(C#N)=C1\N=NNN1CCCN1CCOCC1`: the TGI in assay [1], in assay [4], in assay [5], in assay [6], in assay [7] and in assay [8] was more than 100 µM each time. For the same compound, the TGI in assay [9] was more than 100 µM.

On to `CC(C)c1ccc(/C=C(\NC(=O)c2ccccc2)c2nc3ccccc3[nH]2)cc1`, for which the TGI in [1], in assay [2], in assay [4], in assay [6], in assay [7] and in assay [8] was more than 100 µM in each case. In addition, the TGI in assay [9] is 75.3 µM.

On to `O=C1c2cccnc2C(=O)c2c1c(C(=O)OCCCN1CCOCC1)c1ccccn21`, for which the GI50 in assay [1] was 0.0295 µM; in [2], less than 0.01 µM; in assay [10], 0.0361 µM; in [5] it was 0.0658 µM; in assay [7], 0.0493 µM; in assay [8] it was 0.0124 µM. The GI50 in assay [9] was less than 0.01 µM. Also, the TGI in assay [1] came to 2.09 µM; in assay [2], 10.7 µM; in assay [10], 2.76 µM; in assay [5] it was 4.57 µM; in assay [8], 0.0403 µM.

For the compound `CCOC(=O)c1cnc2[nH]c(=O)c3ccccc3n2c1=O`, the TGI in [2], in assay [10], in assay [3], in [4], in [5] and in [6] was more than 100 µM in each case. Further, the TGI in assay [7], in assay [8] and in assay [9] was more than 100 µM throughout.

On to `O=C1c2ccccc2-c2cc3ccccc3c(=O)n21`, for which the TGI in assay [2], in assay [5], in assay [6], in assay [7], in [8] and in assay [9] was more than 100 µM in each case.
